One assay deals with Factor Xa (Homo sapiens, UniProt P00742). The assay is described as follows: Determination of Factor Xa IC50 (chromogenic substrate S2765). In kind it is biochemical. The following applies: 60 minutes incubation at room temperature. As to the method: The ability of compounds to act as inhibitors of Factor Xa catalytic activity is assessed by determination of that concentration of test substance that inhibits by 50% (IC50) the ability of Factor Xa to cleave the chromogenic substrate S2765 (N-CBz-D-Arg-L-Gly-L-Arg-p-nitroanilide.cndot.2 HCl). Typically, Factor Xa in 10 mM HEPES, 100 mM NaCl, 0.05% BSA, and 0.1% PEG-8000 and the test substance in DMSO are incubated for 60 minutes at room temperature. To this mixture is added S2765 and the velocity of S2765 hydrolysis measured by observing the intensity of absorbance at 405 nm over 5 minutes.

The next assay addresses T1, trypsin (Bos taurus, UniProt P00760).
T1 sequence (P00760 24-246): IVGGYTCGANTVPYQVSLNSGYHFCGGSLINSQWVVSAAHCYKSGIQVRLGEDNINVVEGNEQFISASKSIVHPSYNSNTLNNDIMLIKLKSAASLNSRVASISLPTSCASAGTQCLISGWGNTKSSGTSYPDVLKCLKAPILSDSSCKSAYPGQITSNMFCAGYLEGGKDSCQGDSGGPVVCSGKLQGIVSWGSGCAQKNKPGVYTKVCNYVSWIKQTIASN
The assay is described as follows: Determination of Trypsin IC50 (chromogenic substrate S2222). In kind it is biochemical. The following applies: 60 minutes incubation at room temperature. As to the method: The ability of compounds to act as inhibitors of trypsin catalytic activity is assessed by determination of that concentration of test substance that inhibits by 50% (IC50) the ability of trypsin to cleave the chromogenic substrate S2222 (N-Bz-L-Ile-L-Glu-L-Gly-L-Arg-p-nitroanilide.cndot.HCl). Typically, trypsin in 10 mM HEPES, 100 mM NaCl, 0.05% BSA, and 0.1% PEG-8000, and the test substance in DMSO are incubated for 60 minutes at room temperature. To this mixture is added S2222 and the velocity of S2222 hydrolysis measured by observing the intensity of absorbance at 405 nm over 5 minutes.

The target in a further assay is human thrombin (Homo sapiens, UniProt P00734). Description: Determination of Thrombin Ki (fluorogenic substrate Tos-Gly-Pro-Arg-AMC). Type of assay: biochemical. The following applies: 50 mM Tris-HCl pH 7.52 at 37° C., 0.1 M NaCl, 0.1% poly(ethylene glycol) 8000, room temperature. The procedure: Compounds of the present invention may be prepared for assay by dissolving them in buffer to give solutions ranging in concentrations from 1 to 100 μM. In an assay to determine the inhibitory dissociation constant, Ki, for a given compound, a chromogenic or fluorogenic substrate of thrombin is added to a solution containing a test compound and thrombin; the resulting catalytic activity of the enzyme is spectrophotometrically determined. This assay is well-known to those skilled in the art and is commonly used to determine antithrombotic activity.
The affinity of inhibitors for thrombin was measured according to the procedures described in (DiMaio, et al., J. Biol. Chem., 1990; 265:21698). Inhibition of amidolytic activity of human thrombin was measured fluorometrically using Tos-Gly-Pro-Arg-AMC as a fluorogenic substrate in 50 mM Tris-HCl buffer (pH 7.52 at 37° C.) containing 0.1 M NaCl and 0.1% poly(ethylene glycol) 8000 at room temperature. Buffer substrate and inhibitor were mixed, and the reaction was initiated by adding the enzyme solution. Initial velocities were recorded at several inhibitor and substrate concentrations. Kinetic parameters were determined by fitting the data to a general equation describing enzyme inhibition (Segel, Enzyme Kinetics, Wiley Interscience Publications, 1993). […]

Another assay deals with carotid artery. Description: FeCl3-induced carotid arterial injury model (arterial thrombosis). The following applies: rat; IV bolus 0.75 mg/kg then IV infusion 50 μg/kg/min; time to occlusion in drug-treated divided by control; 60 minutes monitoring. In kind it is in vivo, rat (male Sprague-Dawley). The procedure: The FeCl3-- induced injury to the carotid artery in rats was induced according to the method described by Kurz K. D., Main R. W., Sandusky G. E., Thrombosis Research, 1990; 60:269-280 and Schumacher W. A., et al., J. Pharmacology and Experimental Therapeutics, 1993; 267:1237-1242.
Male, Sprague-Dawley rats (375-410 g) were anesthetized with urethane (1500 mg/kg ip). Animals were laid on a 37° C. heating pad. The carotid artery was exposed through a midline cervical incision. Careful blunt dissection was used to isolate the vessel from the carotid sheath. Using forceps, the artery was lifted to provide sufficient clearance to insert two small pieces of polyethylene tubing (PE-205) underneath it. A temperature probe (Physitemp MT23/3) was placed between one of the pieces of tubing and the artery. Injury was induced by topical application on the carotid artery above the temperature probe of a small disc (3 mm dia.) of Whatman No. 1 filter paper previously dipped in a 35% solution of FeCl3. […] The vessel temperature was monitored for 60 minutes after application of FeCl3 as an indication of blood flow. Vessel temperature changes were recorded on a thermistor (Cole-Palmer Model 08533-41).
The time between the FeCl3 application and the time at which the vessel temperature decreased abruptly (>2.4° C.) was recorded as the time to occlusion of the vessel. […]

Factor Xa, sequence (P00742 235-488 limits assumed): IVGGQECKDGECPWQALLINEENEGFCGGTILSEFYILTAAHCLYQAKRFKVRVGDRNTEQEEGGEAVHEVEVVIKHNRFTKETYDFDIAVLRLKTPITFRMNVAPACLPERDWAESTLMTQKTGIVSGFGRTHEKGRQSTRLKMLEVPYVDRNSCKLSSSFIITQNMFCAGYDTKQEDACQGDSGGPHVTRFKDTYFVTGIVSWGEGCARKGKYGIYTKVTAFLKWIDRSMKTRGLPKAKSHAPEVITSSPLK
Factor Xa, sequence (P00742 41-179 limits assumed): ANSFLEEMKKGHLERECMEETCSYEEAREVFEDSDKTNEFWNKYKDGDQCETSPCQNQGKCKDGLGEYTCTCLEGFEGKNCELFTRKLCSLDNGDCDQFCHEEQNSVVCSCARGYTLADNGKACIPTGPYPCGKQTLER

Take `N=C(N)NCCC[C@H](NC(=O)[C@@H]1CC[C@H]2C(=O)N(CCCc3ccccc3)CC(=O)N12)C(=O)c1nccs1` [Example 11, [6S-[6α(R*),8aα]]-1,4-Dioxo-2-(3-phenyl-propyl)-octahydropyrrolo[1,2-a]pyrazine-6-carboxylic acid [4-guanidino-1-(thiazol-2-carbonyl)-butyl]-amide]: the figures for the IC50 against Factor Xa and against trypsin were 30 nM and below 1 nM, respectively. At human thrombin, this compound showed an inhibition constant Ki of 3 nM. Besides, the “Fold Shift in MOT (mean occlusion time)” value in the assay with carotid artery is above 3.3.

A word on the IC50: it is the concentration that gives 50% inhibition. A low value points to inhibition by little substance. By Ki is commonly meant the dissociation constant of the complex between target and ligand, obtained from inhibition or displacement. The low end stands for a stronger hold on the target, the high end for a looser hold on the target.

(Values after patent publication US6124291A, “Pyrrolo[1,2-a]pyrazine-1,4-dione serine protease inhibitors” (Warner-Lambert Company, priority 1998, dated 2000).)
